From patent publication US10617621B2, “Antimicrobial composition” (Conopco, Inc., priority 2016, dated 2020)
Structures can show the parent of a compound that is named as a salt. Where two headings read alike, the source gives them in different places.

Test system: Malassezia furfur
Assay: ΣFIC assay against Malassezia furfur (checkerboard in-vitro susceptibility testing, alamar blue)
Format: cell-based, M. furfur (CBS 1878)
Protocol: A brief description of the method is given below.
Methods: ΣFIC Assay Against Malassezia furfur
They are then incubated at 32° C. for 48 hrs with shaking. Then, 1 ml of the first broth culture is transferred into 9 ml of fresh PB and incubated at 32° C. for 48 hrs with shaking. The final culture should contain 2 to 6×10^6 cells/ml. This is achieved by diluting using PB to 5*10^6 cell/ml.
The piperazine compound was serially diluted (2-fold) to prepare in a range of 10-10,000 ppm in growth medium.
Binary combinations of ZPTO and the testing compound were prepared in 96-well plate by mixing 20 μl of zinc pyrithione solution with 20 μl of testing compound. The solution in each well were further mixed with 160 μl of PB and 20 μl of M. furfur. The final cell density in the testing plate is around 5*10^4 cell/ml, and the final concentration of actives in each well of the 96-well plate were shown below.
The plate was incubated at 32° C. for one day. Then 20 μl of alamar blue (0.01%) was added into each well with a further incubation for one day to observe the color change. Red color indicates microbial growth and the non-changing blue color indicates no growth.
The MIC is defined as the absolute lowest concentration of active that provides complete microbial growth inhibition as indicated by the blue color of alamar blue under the tested condition.
The differing behaviours of inhibitory antimicrobials in isolation and mixtures have been widely explored using the concept of the Fractional Concentration (FC) and Fractional Inhibitory Concentration (FIC). The parameter can be defined as follows: […]
The interactions between antimicrobials can be additive, synergistic or antagonistic depending on whether the efficacy of the combination is equivalent to, greater than or less than that obtained for the same total concentration of the individual components when tested alone.
These relationships can be expressed mathematically by summing the fractional MIC values for all the components present in the mixture to give the “fractional inhibition index”. There is no consistent approach in the academic or patent literature in defining precise limiting ΣFIC values that differentiate synergy from additivity or antagonism. In this study, we have adopted a liberal approach defining any binary mixture with ΣFIC<0.9 as showing evidence of synergistic behavior.
ΣFIC=FIC (component 1)+FIC (component 2)
ΣFIC=1 corresponds to additive bactericidal activity
ΣFIC>1 corresponds to antagonistic bactericidal activity
ΣFIC<0.9 corresponds to synergistic bactericidal activity

[1] = CBS1878, active alone, M. furfur CBS 1878 in Pityrosporum Broth, 32° C., complete growth inhibition by alamar blue, read-out: Minimum Inhibition Concentration (MIC)
[2] = CBS1878, read-out: Minimum Inhibition Concentration (MIC)

SMILES	MIC [1]	MIC [2]
CC(C)C(=O)N1CCN(c2ccc(F)cc2)CC1 [1-(4-fluorophenyl)-4-isobutyrylpiperazine]	> 1000 µg/mL	
CC(C)C(=O)N1CCN(c2ccccc2)CC1 [1-isobutyryl-4-phenylpiperazine]	> 1000 µg/mL	
O=C(c1ccccc1F)N1CCN(C2CCC(c3ccccc3)CC2)CC1 (centres unmarked) [1-(2-fluorobenzoyl)-4-(4-phenylcylcohexyl)piperazine]	100 µg/mL	
CCc1ccc(CN2CCN(C3CCC(C)CC3)CC2)cc1 (centres unmarked) [1-(4-ethylbenzyl)-4-(4-methylcyclohexyl)piperazine oxalate]		125 µg/mL
CCc1ccc(CN2CCN(Cc3cccc(Cl)c3)CC2)cc1 [1-(3-chlorobenzyl)-4-(4-ethylbenzyl)piperazine oxalate]		> 1000 µg/mL
